The results in this text go back to patent US7749984B2, “Computer-based model for identification and characterization of non-competitive inhibitors of nicotinic acetylcholine receptors and related ligand-gated ion channel receptors” (priority 2003, dated 2010).

Broadly, the pIC50 is the negative decadic logarithm of the IC50, by convention in mol/L. Higher therefore signals a small IC50. A word on the koff: it is the rate constant with which the complex falls apart. In general, kon refers to a measure of how fast the partners come together.

The test system of one experiment is nAChR, SH-SY5Y cells. Nature of the experiment: Rb+ efflux assay, SH-SY5Y cells. In kind it is cell-based, human. The note with it: cell line SH-SY5Y.
The next experiment concerns nAChR, PC-12 cells. Kind of experiment: Rb+ efflux assay, PC-12 cells. In kind it is cell-based, rat. The note with it: cell line PC-12.
The target in the next experiment is α3β4 nAChR (Rattus norvegicus, UniProt P04757+P12392). Nature of the experiment: biochemical. The note with it: α3β4 nAChR; for koff / kon / Kd: NLC; for koff: read-out: koff dissociation constant rate; for kon: read-out: kon association constant rate; for Kd: read-out: log K chromatographic equilibrium constant (converted); for k′(NLC) retention capacity factor: 10 μM, 20 μl injected, ammonium acetate 10 mM pH 7.4/methanol 85:15. In kind it is binding. On the set-up: host or cells: HEK293 (KXα3β4R2).
Sequence of α3β4 nAChR (P04757 26-499): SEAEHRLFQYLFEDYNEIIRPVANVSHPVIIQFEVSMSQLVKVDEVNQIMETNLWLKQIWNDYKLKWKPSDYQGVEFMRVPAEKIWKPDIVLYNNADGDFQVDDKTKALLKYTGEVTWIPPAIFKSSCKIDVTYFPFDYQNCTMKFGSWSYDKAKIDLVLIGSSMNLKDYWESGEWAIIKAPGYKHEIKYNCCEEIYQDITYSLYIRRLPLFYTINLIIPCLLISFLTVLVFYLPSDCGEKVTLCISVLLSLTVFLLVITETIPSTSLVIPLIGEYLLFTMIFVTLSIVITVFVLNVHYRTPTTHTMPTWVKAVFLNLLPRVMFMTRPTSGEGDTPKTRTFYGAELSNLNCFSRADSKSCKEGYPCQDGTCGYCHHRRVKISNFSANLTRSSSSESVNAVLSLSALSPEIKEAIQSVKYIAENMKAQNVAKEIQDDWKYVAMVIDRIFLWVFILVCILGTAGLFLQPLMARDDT
Sequence of α3β4 nAChR (P12392 21-495): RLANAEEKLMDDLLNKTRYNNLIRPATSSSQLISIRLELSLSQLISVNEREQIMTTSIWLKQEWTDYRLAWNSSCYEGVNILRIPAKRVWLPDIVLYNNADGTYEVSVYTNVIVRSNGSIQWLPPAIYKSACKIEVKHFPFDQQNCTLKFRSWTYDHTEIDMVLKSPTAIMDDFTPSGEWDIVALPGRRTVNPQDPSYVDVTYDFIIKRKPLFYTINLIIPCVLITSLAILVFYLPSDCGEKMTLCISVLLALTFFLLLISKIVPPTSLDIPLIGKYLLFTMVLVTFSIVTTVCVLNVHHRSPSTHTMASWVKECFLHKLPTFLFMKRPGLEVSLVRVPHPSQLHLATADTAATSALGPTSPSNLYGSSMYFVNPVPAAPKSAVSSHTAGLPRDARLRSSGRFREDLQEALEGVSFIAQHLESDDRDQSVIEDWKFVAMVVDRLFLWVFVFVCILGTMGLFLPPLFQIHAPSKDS

In a further experiment the target is K177 (α4β2) (Homo sapiens, UniProt P17787+P43681). Nature of the experiment: Rb+ efflux assay, K177 cells.
Sequence of K177 (α4β2) (P43681 27-627): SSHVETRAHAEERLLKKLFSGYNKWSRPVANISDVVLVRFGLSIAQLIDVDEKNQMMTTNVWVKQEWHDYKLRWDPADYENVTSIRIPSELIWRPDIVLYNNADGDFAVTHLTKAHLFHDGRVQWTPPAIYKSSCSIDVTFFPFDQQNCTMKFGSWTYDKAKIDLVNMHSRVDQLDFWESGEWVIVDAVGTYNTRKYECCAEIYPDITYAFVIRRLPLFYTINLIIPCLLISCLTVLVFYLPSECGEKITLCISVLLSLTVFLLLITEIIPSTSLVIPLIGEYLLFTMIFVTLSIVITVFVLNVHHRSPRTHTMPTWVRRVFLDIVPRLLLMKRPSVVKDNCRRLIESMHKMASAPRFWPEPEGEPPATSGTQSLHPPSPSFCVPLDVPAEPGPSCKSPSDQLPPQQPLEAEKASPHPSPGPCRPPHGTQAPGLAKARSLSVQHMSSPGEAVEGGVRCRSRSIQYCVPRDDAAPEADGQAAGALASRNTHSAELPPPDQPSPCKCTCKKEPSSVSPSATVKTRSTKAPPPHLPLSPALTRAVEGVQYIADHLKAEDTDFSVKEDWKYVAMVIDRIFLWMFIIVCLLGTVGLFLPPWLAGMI
Sequence of K177 (α4β2) (P17787 26-502): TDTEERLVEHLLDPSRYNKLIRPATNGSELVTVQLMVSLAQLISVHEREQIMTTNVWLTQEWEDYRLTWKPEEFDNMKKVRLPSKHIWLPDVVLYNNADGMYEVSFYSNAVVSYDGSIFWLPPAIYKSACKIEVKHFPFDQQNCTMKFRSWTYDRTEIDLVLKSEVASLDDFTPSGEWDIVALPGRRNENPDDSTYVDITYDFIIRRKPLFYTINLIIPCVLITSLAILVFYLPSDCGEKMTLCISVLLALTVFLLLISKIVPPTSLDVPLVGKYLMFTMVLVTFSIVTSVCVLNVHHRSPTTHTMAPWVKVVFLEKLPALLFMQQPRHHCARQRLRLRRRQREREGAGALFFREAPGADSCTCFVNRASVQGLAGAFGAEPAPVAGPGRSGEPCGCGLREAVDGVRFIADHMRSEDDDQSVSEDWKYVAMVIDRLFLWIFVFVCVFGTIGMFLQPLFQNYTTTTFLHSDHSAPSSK

pIC50: −log10 of the molar value.

`CNC1(c2ccccc2Cl)CCCCC1=O` (centres unmarked) [ketamine] gave a negative-log IC50 (pIC50) in the experiment on nAChR, SH-SY5Y cells of 5.85. The compound also had a pIC50 in the experiment with nAChR, PC-12 cells of 5.28. On α3β4 nAChR, the koff is 8.5 s⁻¹, the on-rate constant (kon) stood at 3.84e+07 M⁻¹ s⁻¹, the Kd is 0.224 µM and the “k′(NLC) retention capacity factor” value was found to be 8.25.
Take `CC12CC3CC(C)(C1)CC(N)(C3)C2` [memantine]: on K177 (α4β2), the negative-log IC50 (pIC50) was 5.18. At α3β4 nAChR, the koff amounted to 3.45 s⁻¹, the kon came to 1.88e+07 M⁻¹ s⁻¹, the Kd was 0.182 µM and the “k′(NLC) retention capacity factor” value came out at 16.71.
